# Measured values taken from patent publication US20110275643A1, “AROYLQUINOLINE COMPOUNDS” (NATIONAL HEALTH RESEARCH INSTITUTES, priority 2010, published 2011).
# Where two headings read alike, the source gives them in different places.
# Experiments:
# [1] = test system: oral epidermoid carcinoma KB cells; assay: In vitro cell growth inhibition, methylene blue dye assay, KB cells; assay type: cell-based, Human; details: Homo sapiens
# Protocol: (§1) Human oral epidermoid carcinoma KB cells, non-small-cell lung carcinoma H460 cells, colorectal carcinoma HT29 cells and stomach carcinoma MKN45 cells were maintained in RMPI-1640 medium supplied with 5% fetal bovine serum (FBS). […] Cells in logarithmic phase were cultured at a density of 5000 cells/mL/well in a 24-well plate. KB-VIN10 cells were cultured in drug-free medium for 3 days prior to use. The cells were exposed to various concentrations of the test drugs for 72 hours. The methylene blue dye assay was used to evaluate the effect of the test compounds on cell growth (Finlay et al., 1984).
# [2] = test system: non-small-cell lung carcinoma H460 cells; assay: In vitro cell growth inhibition, methylene blue dye assay, H460 cells; assay type: cell-based, Human; details: Homo sapiens, read-out: IC50 on the proliferation of cells, H460
# Protocol: as §1
# [3] = test system: colorectal carcinoma HT29 cells; assay: In vitro cell growth inhibition, methylene blue dye assay, HT29 cells; assay type: cell-based, Human; details: Homo sapiens, read-out: IC50 on the proliferation of cells, HT29
# Protocol: as §1
# [4] = test system: stomach carcinoma MKN45 cells; assay: In vitro cell growth inhibition, methylene blue dye assay, MKN45 cells; assay type: cell-based, Human; details: Homo sapiens, read-out: IC50 on the proliferation of cells, MKN45
# Protocol: as §1
# [5] = test system: KB-VIN10 cells (overexpression of P-gp170/MDR); assay: In vitro cell growth inhibition, methylene blue dye assay, MDR-positive KB-VIN10 cells; assay type: cell-based, Human; details: Homo sapiens, read-out: IC50 on the proliferation of cells, KB-VIN10
# Protocol: as §1
# [6] = test system: five cancer cell lines (KB, H460, HT29, MKN45, KB-VIN10); assay: Antiproliferative activity, mean over five cancer cell lines; assay type: cell-based, Human
# Protocol: The synthesized compounds 5 to 17 were evaluated for antiproliferative activities against four carcinoma cells, oral epidermoid carcinoma KB cells, non-small-cell lung carcinoma H460 cells, colorectal carcinoma HT29 cells and stomach carcinoma MKN45 cells, as well as the MDR-positive cell lines KB-VIN10, that overexpressed P-gp 170/MDR (Table 1). The controls were compounds 1 and 3.
# as §1
# [7] = read-out: 50% Inhibition concentration (IC50) on the proliferation of KB cells line, Table 2, KB cells
# [8] = KB cells, 72 hours, mean ± SD, read-out: IC50 on the proliferation of cells, KB
# [9] = NCI-H460, H460 cells, 72 hours, mean ± SD
# [10] = HT-29, HT29 cells, 72 hours, mean ± SD
# [11] = MKN-45, MKN45 cells, 72 hours, mean ± SD
# [12] = KB-VIN10 cells, 72 hours, mean ± SD
SMILES,"IC50 [1, 7] [nM]",melting point [°C],further results
"COc1cc(C(=O)c2ccc3c(C#CC(C)(C)O)c(OC)ccc3n2)cc(OC)c1OC [Compound 44, 5-(3″-hydroxy-3″-methylbut-1″-ynyl)-6-methoxy-2-(3′,4′,5′-trimethoxybenzoyl)quinoline]",495,151 to 153,–
"COc1cc(S(=O)(=O)c2ccc3c(N)c(OC)ccc3n2)cc(OC)c1OC [Compound 84, 5-amino-6-methoxy-2-(3′,4′,5′-trimethoxyphenylsulfonyl)quinoline]",< 10,–,–
"COc1cc(C(=O)c2ccc3c(Br)c(OC)ccc3n2)cc(OC)c1OC [Compound 42, 5-bromo-6-methoxy-2-(3′,4′,5′-trimethoxybenzoyl)quinoline]",108,163 to 165,–
"COc1cc(C(=O)c2cnc3ccccc3c2)cc(OC)c1OC [Compound 6, 3-(3′,4′,5′-trimethoxybenzoyl)quinoline]",–,107 to 109,"IC50 [1, 8]: 1800 ± 100 nM; IC50 [2, 9]: 1.6 ± 0.38 µM; IC50 [3, 10]: 1000 ± 210 nM; IC50 [4, 11]: 562 ± 42 nM; IC50 [5, 12]: 1100 ± 220 nM"
"COc1ccc(C(=O)c2ccc3c(OC)c(OC)c(OC)cc3n2)cc1 [Compound 49, 2-(4′-methoxybenzoyl)-5,6,7-trimethoxyquinoline]",> 1000,103 to 105,–
"COc1cc(C(=O)c2ccc3c(C#N)c(OC)ccc3n2)cc(OC)c1OC [Compound 43, 5-cyano-6-methoxy-2-(3′,4′,5′-trimethoxybenzoyl)quinoline]",17,191 to 192,–
"COc1ccc(C(=O)c2ccc3c(OC)c(OC)c(OC)cc3n2)cc1F [Compound 50, 2-(3′-fluoro-4′-methoxybenzoyl)-5,6,7-trimethoxyquinoline]",> 10000,137 to 139,–
"COc1cc(C(=O)c2ccc3c(-c4ccc(O)cc4)c(OC)ccc3n2)cc(OC)c1OC [Compound 30, 5-(4″-hydroxyphenyl)-6-methoxy-2-(3′,4′,5′-trimethoxybenzoyl)quinoline]",> 10000,201 to 203,–
"COc1cc(C(=O)c2ccc3c(O)c(OC)ccc3n2)cc(OC)c1O [Compound 87, 5-hydroxy-6-methoxy-2-(4′-hydroxy-3′,5′-dimethoxybenzoyl)quinoline]",471,–,–
"COc1ccc(-c2ccc3c(OC)c(OC)c(OC)cc3n2)cc1 [Compound 64, 2-(4′-methoxyphenyl)-5,6,7-trimethoxyquinoline]",> 10000,136 to 137,–
"COc1cc(C(=O)c2ccc3cccnc3c2)cc(OC)c1OC [Compound 10, 7-(3′,4′,5′-trimethoxybenzoyl)quinoline]",–,149 to 151,"IC50 [1, 8]: > 10000 nM; IC50 [2, 9]: > 10 µM; IC50 [3, 10]: > 10000 nM; IC50 [4, 11]: > 10000 nM; IC50 [5, 12]: > 10000 nM; cytotoxicity / antiproliferative activity in words [6]: loss of cytotoxicity"
"COc1cc(Oc2ccc3c(N)c(OC)ccc3n2)cc(OC)c1OC [Compound 60, 5-amino-6-methoxy-2-(3′,4′,5′-trimethoxyphenoxy)quinoline]",–,209 to 210,–
"COc1cc(C(=O)c2ccc3c(I)c(OC)ccc3n2)cc(OC)c1OC [Compound 34, 5-iodo-6-methoxy-2-(3′,4′,5′-trimethoxybenzoyl)quinoline]",451,202 to 204,–
"COc1ccc(C(=O)c2ccnc3c(OC)c(OC)c(OC)cc23)cc1F [Compound 67, 4-(3′-fluoro-4′-methoxybenzoyl)-6,7,8-trimethoxyquinoline]",1670,117 to 118,–
"COc1cc(-c2ccc3c(N)c(OC)ccc3n2)cc(OC)c1OC [Compound 58, 5-amino-6-methoxy-2-(3′,4′,5′-trimethoxyphenyl)quinoline]",> 10000,222 to 223,–
"COc1cc(C(=O)c2ccc3c(ccc[n+]3C)c2)cc(OC)c1OC.[I-] [Compound 17, 6-(3′,4′,5′-trimethoxybenzoyl)-1-methylquinolinium iodide]",–,187 to 188,"IC50 [1, 8]: > 10000 nM; IC50 [2, 9]: > 10 µM; IC50 [3, 10]: > 10000 nM; IC50 [4, 11]: > 10000 nM; IC50 [5, 12]: > 10000 nM; cytotoxicity / antiproliferative activity in words ([6]; five cancer cell lines): drastic loss of activity"

SMILES,"IC50 [1, 7] [nM]",melting point [°C],further results
"COc1cc(C(=O)c2ccc3c(Cl)c(OC)ccc3n2)cc(OC)c1OC [Compound 47, 5-chloro-6-methoxy-2-(3′,4′,5′-trimethoxybenzoyl)quinoline]",45,176 to 177,–
"COc1ccc(C(=O)c2ccnc3c(OC)c(OC)c(OC)cc23)cc1 [Compound 54, 4-(4′-methoxybenzoyl)-6,7,8-trimethoxyquinoline]",1300,–,–
"COc1cc(Nc2ccc3c(N)c(OC)ccc3n2)cc(OC)c1OC [Compound 62, 5-amino-6-methoxy-2-(3′,4′,5′-trimethoxyphenylamino)quinoline]",> 10000,222 to 223,–
"COc1cc(C(=O)c2cccc3ncccc23)cc(OC)c1OC [Compound 8, 5-(3′,4′,5′-trimethoxybenzoyl)quinoline]",–,145 to 147,"IC50 [1, 8]: 2900 ± 400 nM; IC50 [2, 9]: 3.8 ± 0.62 µM; IC50 [3, 10]: 2800 ± 310 nM; IC50 [4, 11]: 1200 ± 150 nM; IC50 [5, 12]: 2300 ± 400 nM"
"COc1cc(C(=O)c2ccc3c(ccc[n+]3[O-])c2)cc(OC)c1OC [Compound 16, 6-(3′,4′,5′-trimethoxybenzoyl)quinoline N-oxide]",–,175 to 176,"IC50 [1, 8]: 830 ± 172 nM; IC50 [2, 9]: 1.1 ± 0.15 µM; IC50 [3, 10]: 872 ± 86.2 nM; IC50 [4, 11]: 617 ± 85 nM; IC50 [5, 12]: 764 ± 111 nM; fold reduction of activity compared with compound 9 ([6]; versus compound 9): > 10 fold"
"COc1cc(C(=O)c2ccnc3ccccc23)cc(OC)c1OC [Compound 7, 4-(3′,4′,5′-trimethoxybenzoyl)quinoline]",–,109 to 110,"IC50 ([1]; KB, 72 h, read-out: IC50 on the proliferation of cells, KB): 3500 ± 700 nM; IC50 ([2]; NCI-H460, 72 h): 3.8 ± 0.52 µM; IC50 ([3]; HT-29, 72 h): 2300 ± 480 nM; IC50 ([4]; MKN-45, 72 h): 920 ± 90 nM; IC50 ([5]; KB-VIN10, 72 h): 2200 ± 600 nM"
"COc1cc(Sc2ccc3c(N)c(OC)ccc3n2)cc(OC)c1OC [Compound 82, 5-amino-6-methoxy-2-(3′,4′,5′-trimethoxyphenylthio)quinoline]",< 10,–,–
"COc1cc(C(=O)c2ccc3c(-c4ccncc4)c(OC)ccc3n2)cc(OC)c1OC [Compound 33, 6-methoxy-5-pyridinyl-2-(3′,4′,5′-trimethoxybenzoyl)quinoline]",472,203 to 205,–
"COc1cc(C(=O)c2ccc3nccnc3c2)cc(OC)c1OC [Compound 75, 6-(3′,4′,5′-trimethoxybenzoyl)quinoxaline]",–,149 to 151,–
"COc1cc2nc(C(=O)c3ccc(F)cc3)ccc2c(OC)c1OC [Compound 51, 2-(4′-fluorobenzoyl)-5,6,7-trimethoxyquinoline]",–,145 to 146,–
"COc1cc(C(=O)c2ccnc3c(OC)cccc23)cc(OC)c1OC [Compound 13, 8-methoxy-4-(3′,4′,5′-trimethoxybenzoyl)quinoline]",–,162.5 to 164.1,"IC50 [1, 8]: 155 ± 15.1 nM; IC50 [2, 9]: 0.193 ± 0.0353 µM; IC50 [3, 10]: 162 ± 28.7 nM; IC50 [4, 11]: 147 ± 25.4 nM; IC50 [5, 12]: 165 ± 33 nM; cytotoxicity / antiproliferative activity in words [6]: over an order of magnitude increase in activity over the parental compound 7; IC50 ([6]; Homo sapiens, mean of KB, H460, HT29, MKN45, KB-VIN10, read-out: mean IC50 value against five cancer cell lines): 164 nM"
"COc1cc2nc(-c3ccc(N(C)C)cc3)ccc2c(OC)c1OC [Compound 65, 2-[4′-(N,N-dimethylamino)phenyl]-5,6,7-trimethoxyquinoline]",> 10000,154 to 155,–
"COc1ccc(-c2ccc3c(OC)c(OC)c(OC)cc3n2)cc1F [Compound 66, 2-(3′-fluoro-4′-methoxyphenyl)-5,6,7-trimethoxyquinoline]",> 10000,129 to 130,–
"COc1cc2c(C(=O)c3ccc(N(C)C)cc3)ccnc2c(OC)c1OC [Compound 68, 4-[4′-(N,N-dimethyl)-benzoyl]-6,7,8-trimethoxyquinoline]",226,–,–
"COc1cc(C(=O)c2cccc3cccnc23)cc(OC)c1OC [Compound 11, 8-(3′,4′,5′-trimethoxybenzoyl)quinoline]",–,153 to 155,"IC50 [1, 8]: 8100 ± 700 nM; IC50 [2, 9]: 5 ± 0.92 µM; IC50 [3, 10]: 4500 ± 1100 nM; IC50 [4, 11]: 3200 ± 700 nM; IC50 [5, 12]: 6000 ± 800 nM"
